Results on 29 molecules are retold here after patent US9687479B2, “Multisubstituted aromatic compounds as serine protease inhibitors” (VERSEON CORPORATION, priority 2013, dated 2017).

The experiment deals with Human thrombin (Homo sapiens (Human), UniProt P00734). The experiment can be described thus: Thrombin protease activity inhibition assay (chromogenic substrate S-2238). It counts as biochemical. The conditions noted are these: 3 nM thrombin, 125 μM S-2238, 10 min pre-incubation, RT. The essentials:
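Ten-point, three-fold serial dilutions of compound tested against 3 nM enzyme at RT in Tris buffer (0.05 M, pH 7.4) with 0.015 M NaCl and 0.01% PEG-8000.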
As to `O=C(c1ccoc1)n1nc(-c2cccn(CCN3CCOCC3)c2=O)cc1NCc1ccc(Cl)s1` [Cmpd 181, 3-(5-[(5-chlorothiophen-2-yl)methyl]amino-1-[(furan-3-yl)carbonyl]-1H-pyrazol-3-yl)-1-[2-(morpholin-4-yl)ethyl]-1,2-dihydropyridin-2-one], the IC50 is less than 0.1 µM.
In turn, `O=C(c1cccs1)n1nc(-c2cccn(Cc3ccco3)c2=O)cc1NCc1ccc(Cl)s1` [Cmpd 183, 3-(5-[(5-chlorothiophen-2-yl)methyl]amino-1-[(thiophen-2-yl)carbonyl]-1H-pyrazol-3-yl)-1-(furan-2-ylmethyl)-1,2-dihydropyridin-2-one] showed an IC50 of less than 0.1 µM.
In the case of `O=C(c1cccs1)n1nc(-c2cccn(Cc3cccnn3)c2=O)cc1NCc1ccc(Cl)s1` [Cmpd 185, 3-(5-[(5-chlorothiophen-2-yl)methyl]amino-1-[(thiophen-2-yl)carbonyl]-1H-pyrazol-3-yl)-1-(pyridazin-3-ylmethyl)-1,2-dihydropyridin-2-one], the IC50 was greater than 100 µM.
As to `O=C(c1cccs1)n1nc(-c2cccn(Cc3ccccn3)c2=O)cc1NCc1ccc(Cl)s1` [Cmpd 186, 3-(5-[(5-chlorothiophen-2-yl)methyl]amino-1-[(thiophen-2-yl)carbonyl]-1H-pyrazol-3-yl)-1-(pyridin-2-ylmethyl)-1,2-dihydropyridin-2-one], the IC50 was less than 0.1 µM.
The molecule `O=C(c1cccs1)n1nc(-c2cccn(Cc3cccnc3)c2=O)cc1NCc1ccc(Cl)s1` [Cmpd 187, 3-(5-[(5-chlorothiophen-2-yl)methyl]amino-1-[(thiophen-2-yl)carbonyl]-1H-pyrazol-3-yl)-1-(pyridin-3-ylmethyl)-1,2-dihydropyridin-2-one] registered an IC50 of less than 0.1 µM.
`O=C(c1cccs1)n1nc(-c2cccn(Cc3ccncc3)c2=O)cc1NCc1ccc(Cl)s1` [Cmpd 188, 3-(5-[(5-chlorothiophen-2-yl)methyl]amino-1-[(thiophen-2-yl)carbonyl]-1H-pyrazol-3-yl)-1-(pyridin-4-ylmethyl)-1,2-dihydropyridin-2-one] displayed a half-inhibitory concentration (IC50) of less than 0.1 µM.
Molecule `O=C(c1cccs1)n1nc(-c2cccn(Cc3ncccn3)c2=O)cc1NCc1ccc(Cl)s1` [Cmpd 189, 3-(5-[(5-chlorothiophen-2-yl)methyl]amino-1-[(thiophen-2-yl)carbonyl]-1H-pyrazol-3-yl)-1-(pyrimidin-2-ylmethyl)-1,2-dihydropyridin-2-one] came in with a half-inhibitory concentration (IC50) of less than 0.1 µM.
Turning to `O=C(c1cccs1)n1nc(-c2cccn(Cc3cccs3)c2=O)cc1NCc1ccc(Cl)s1` [Cmpd 190, 3-(5-[(5-chlorothiophen-2-yl)methyl]amino-1-[(thiophen-2-yl)carbonyl]-1H-pyrazol-3-yl)-1-(thiophen-2-ylmethyl)-1,2-dihydropyridin-2-one], the IC50 was less than 0.1 µM.
The molecule `O=C(c1cccs1)n1nc(-c2cccn(Cc3ccsc3)c2=O)cc1NCc1ccc(Cl)s1` [Cmpd 191, 3-(5-[(5-chlorothiophen-2-yl)methyl]amino-1-[(thiophen-2-yl)carbonyl]-1H-pyrazol-3-yl)-1-(thiophen-3-ylmethyl)-1,2-dihydropyridin-2-one] had a concentration for half-maximal inhibition (IC50) of less than 0.1 µM.
The molecule `O=C(c1cccs1)n1nc(-c2cccn(CCN3CCOCC3)c2=O)cc1NCc1ccc(Cl)s1` [Cmpd 192, 3-(5-[(5-chlorothiophen-2-yl)methyl]amino-1-[(thiophen-2-yl)carbonyl]-1H-pyrazol-3-yl)-1-[2-(morpholin-4-yl)ethyl]-1,2-dihydropyridin-2-one] registered a concentration for half-maximal inhibition (IC50) greater than 100 µM.
In the case of `O=C(c1ccsc1)n1nc(-c2ccc[nH]c2=O)cc1NCc1ccc(Cl)s1` [Cmpd 193, 3-(5-[(5-chlorothiophen-2-yl)methyl]amino-1-[(thiophen-3-yl)carbonyl]-1H-pyrazol-3-yl)-1,2-dihydropyridin-2-one] it was less than 0.1 µM; in that of `O=C(c1ccsc1)n1nc(-c2cccn(Cc3ccco3)c2=O)cc1NCc1ccc(Cl)s1` [Cmpd 195, 3-(5-[(5-chlorothiophen-2-yl)methyl]amino-1-[(thiophen-3-yl)carbonyl]-1H-pyrazol-3-yl)-1-(furan-2-ylmethyl)-1,2-dihydropyridin-2-one], less than 0.1 µM; in that of `O=C(c1ccsc1)n1nc(-c2cccn(Cc3cccnn3)c2=O)cc1NCc1ccc(Cl)s1` [Cmpd 197, 3-(5-[(5-chlorothiophen-2-yl)methyl]amino-1-[(thiophen-3-yl)carbonyl]-1H-pyrazol-3-yl)-1-(pyridazin-3-ylmethyl)-1,2-dihydropyridin-2-one], less than 0.1 µM.
Consider `O=C(c1ccsc1)n1nc(-c2cccn(Cc3cccnc3)c2=O)cc1NCc1ccc(Cl)s1` [Cmpd 199, 3-(5-[(5-chlorothiophen-2-yl)methyl]amino-1-[(thiophen-3-yl)carbonyl]-1H-pyrazol-3-yl)-1-(pyridin-3-ylmethyl)-1,2-dihydropyridin-2-one], for which the IC50 was greater than 100 µM.
`O=C(c1ccsc1)n1nc(-c2cccn(Cc3ccncc3)c2=O)cc1NCc1ccc(Cl)s1` [Cmpd 200, 3-(5-[(5-chlorothiophen-2-yl)methyl]amino-1-[(thiophen-3-yl)carbonyl]-1H-pyrazol-3-yl)-1-(pyridin-4-ylmethyl)-1,2-dihydropyridin-2-one]: the 50% inhibitory concentration (IC50) was less than 0.1 µM.
For `O=C(c1ccsc1)n1nc(-c2cccn(Cc3cccs3)c2=O)cc1NCc1ccc(Cl)s1` [Cmpd 202, 3-(5-[(5-chlorothiophen-2-yl)methyl]amino-1-[(thiophen-3-yl)carbonyl]-1H-pyrazol-3-yl)-1-(thiophen-2-ylmethyl)-1,2-dihydropyridin-2-one], the IC50 was less than 0.1 µM.
With `O=C(c1ccsc1)n1nc(-c2cccn(CCN3CCOCC3)c2=O)cc1NCc1ccc(Cl)s1` [Cmpd 204, 3-(5-[(5-chlorothiophen-2-yl)methyl]amino-1-[(thiophen-3-yl)carbonyl]-1H-pyrazol-3-yl)-1-[2-(morpholin-4-yl)ethyl]-1,2-dihydropyridin-2-one], the 50% inhibitory concentration (IC50) is less than 0.1 µM.
In the case of `O=C(c1ccccc1N1CCOCC1)n1nc(-c2ccc[nH]c2=O)cc1NCc1ccc(Cl)s1` [Cmpd 205, 3-(5-[(5-chlorothiophen-2-yl)methyl]amino-1-[2-(morpholin-4-yl)phenyl]carbonyl-1H-pyrazol-3-yl)-1,2-dihydropyridin-2-one] it was 1 to 10 µM.
Turning to `COCCOc1ccc(C(=O)n2nc(-c3ccc[nH]c3=O)cc2NCc2ccc(Cl)s2)cc1` [Cmpd 206, 3-(5-[(5-chlorothiophen-2-yl)methyl]amino-1-[4-(2-methoxyethoxy)phenyl]carbonyl-1H-pyrazol-3-yl)-1,2-dihydropyridin-2-one], the IC50 is less than 0.1 µM.
In the case of `O=C(c1ccc(N2CCOCC2)cc1)n1nc(-c2ccc[nH]c2=O)cc1NCc1ccc(Cl)s1` [Cmpd 207, 3-(5-[(5-chlorothiophen-2-yl)methyl]amino-1-[4-(morpholin-4-yl)phenyl]carbonyl-1H-pyrazol-3-yl)-1,2-dihydropyridin-2-one] it was less than 0.1 µM; in that of `O=C(c1ccc(N2CCOCC2)cc1)n1nc(-c2cccn(Cc3ccco3)c2=O)cc1NCc1ccc(Cl)s1` [Cmpd 209, 3-(5-[(5-chlorothiophen-2-yl)methyl]amino-1-[4-(morpholin-4-yl)phenyl]carbonyl-1H-pyrazol-3-yl)-1-(furan-2-ylmethyl)-1,2-dihydropyridin-2-one], less than 0.1 µM; in that of `O=C(c1ccc(N2CCOCC2)cc1)n1nc(-c2cccn(Cc3cccnn3)c2=O)cc1NCc1ccc(Cl)s1` [Cmpd 211, 3-(5-[(5-chlorothiophen-2-yl)methyl]amino-1-[4-(morpholin-4-yl)phenyl]carbonyl-1H-pyrazol-3-yl)-1-(pyridazin-3-ylmethyl)-1,2-dihydropyridin-2-one], less than 0.1 µM.
On to `O=C(c1ccc(N2CCOCC2)cc1)n1nc(-c2cccn(Cc3ccccn3)c2=O)cc1NCc1ccc(Cl)s1` [Cmpd 212, 3-(5-[(5-chlorothiophen-2-yl)methyl]amino-1-[4-(morpholin-4-yl)phenyl]carbonyl-1H-pyrazol-3-yl)-1-(pyridin-2-ylmethyl)-1,2-dihydropyridin-2-one], for which the IC50 is less than 0.1 µM.
As to `O=C(c1ccc(N2CCOCC2)cc1)n1nc(-c2cccn(Cc3ncccn3)c2=O)cc1NCc1ccc(Cl)s1` [Cmpd 215, 3-(5-[(5-chlorothiophen-2-yl)methyl]amino-1-[4-(morpholin-4-yl)phenyl]carbonyl-1H-pyrazol-3-yl)-1-(pyrimidin-2-ylmethyl)-1,2-dihydropyridin-2-one], the concentration for half-maximal inhibition (IC50) was less than 0.1 µM.
`O=C(c1ccc(N2CCOCC2)cc1)n1nc(-c2cccn(Cc3cccs3)c2=O)cc1NCc1ccc(Cl)s1` [Cmpd 216, 3-(5-[(5-chlorothiophen-2-yl)methyl]amino-1-[4-(morpholin-4-yl)phenyl]carbonyl-1H-pyrazol-3-yl)-1-(thiophen-2-ylmethyl)-1,2-dihydropyridin-2-one] registered an IC50 of less than 0.1 µM.
For `O=C(c1ccc(N2CCOCC2)cc1)n1nc(-c2cccn(Cc3ccsc3)c2=O)cc1NCc1ccc(Cl)s1` [Cmpd 217, 3-(5-[(5-chlorothiophen-2-yl)methyl]amino-1-[4-(morpholin-4-yl)phenyl]carbonyl-1H-pyrazol-3-yl)-1-(thiophen-3-ylmethyl)-1,2-dihydropyridin-2-one], the half-inhibitory concentration (IC50) was less than 0.1 µM.
Turning to `O=c1c(-c2cc(NCc3ccc(Cl)s3)[nH]n2)cccn1Cc1nnn[nH]1` [Cmpd 219, 3-(5-[(5-chlorothiophen-2-yl)methyl]amino-1H-pyrazol-3-yl)-1-(1H-1,2,3,4-tetrazol-5-ylmethyl)-1,2-dihydropyridin-2-one], the IC50 lay in the range of 10 to 100 µM.
In turn, `COCCn1cccc(-c2cc(NCc3ccc(Cl)s3)n[nH]2)c1=O` [Cmpd 220, 3-(5-[(5-chlorothiophen-2-yl)methyl]amino-1H-pyrazol-3-yl)-1-(2-methoxyethyl)-1,2-dihydropyridin-2-one] registered an IC50 of 10 to 100 µM.
With `O=c1c(-c2cc(NCc3ccc(Cl)s3)[nH]n2)cccn1CCc1ccccc1` [Cmpd 221, 3-(5-[(5-chlorothiophen-2-yl)methyl]amino-1H-pyrazol-3-yl)-1-(2-phenylethyl)-1,2-dihydropyridin-2-one], the half-inhibitory concentration (IC50) was 10 to 100 µM.

As usually defined, the IC50 is the concentration that gives 50% inhibition. Read a high IC50 as weaker potency in that assay.
